From patent publication US20220313697A1, “NEK6 Inhibition to Treat ALS and FTD” (VIB VZW, priority 2021, published 2022)
Ends that are not written are not given here.

Assays:
poly(PR) zebrafish model = poly(PR) zebrafish model of motor axonopathy; format: in vivo
Protocol: Therefore, a morpholino-mediated NEK6 knockdown was performed in a poly(PR) zebrafish model as described in Swinnen et al (2018 Acta Neuropathol doi:10.1007/s00401-017-1796-5). In this model, micro-injection of poly(PR) encoding mRNA results in a motor axonopathy in zebrafish embryos, characterised by reduced axonal lengths and aberrant axonal branching (Swinnen et al 2018 Acta Neuropathol doi:10.1007/s00401-017-1796-5).
Zebrafish work was performed as previously described in Swinnen et al (2018 Acta Neuropathol 135, 427-443). Zebrafish oocytes were injected at one-cell stage with the indicated amounts of the morpholinos. The splice-blocking morpholino against Danio rerio nek6 (transcript ENSDART00000132599.2; morpholino sequence 5′-[…]-3′) and the standard control oligo (morpholino sequence 5′-[…]-3′) were designed and generated by Gene Tools (Philomath, USA). Injected oocytes were incubated at 28° C. After 24 hpf, the embryos were dechorionated by using a forceps. Only morphologically normal embryos were selected for downstream experiments. At 30 hpf, the selected fish were deyolked and subsequently fixed overnight at 4° C. in 4% formaldehyde in lx PBS. Fish were permeabilized with acetone for 1 h at −20° C., blocked with 1% BSA/1% DMSO/PBS for 1 h at room temperature and immune-stained with mouse anti-SV2 primary antibody followed by secondary antibody. For phenotyping, 15 consecutive embryos per condition were analyzed with imaging (Leica DM 3000 LED microscope; DMK 33UX250 USB3.0 monochrome industrial camera, The Imaging Source, Bremen, Germany) and the Lucia software (version 4.60, Laboratory Imaging, Prague, Czech Republic) by a blinded observer. For the axonal length, a standardized method was used; five predefined and consecutive motor axons (i.e. the 8th up to the 12th axon on one side) were measured in all 15 embryos. Data for axonal length were normalized to the control condition. For the abnormal branching, a predefined set of 20 consecutive motor axons (i.e. the 8th up to the 17th axon on both sides) in the same 15 embryos were analyzed visually. […]

[1] = tested on: hiPSC-derived cortical neurons treated with PR20; assay: Axonal transport analysis (mitochondrial transport, MitoTracker-Red) in PR20-treated neurons; format: cell-based, human; conditions: for axonal transport defects observed upon PR-treatment: 200 nm I-3 or 300 nm I-18, added 3 days before and together with PR20; for number of moving mitochondria / ratio of moving mitochondria to total amount of mitochondria: 200 nm I-3 or 300 nm I-18, vs PR-treatment alone
Protocol: Axonal transport defects are an early event in the pathogenesis of ALS (Guo et al 2019 Semin Cell Dev Biol 99:133-150). To assess whether axonal transport defects also occur in cortical neurons from healthy donor hiPSC-cortical neurons treated with PR20 and from C9orf72 patient-derived cortical neurons, mitochondrial transport studies were performed.
To test whether chemical inhibition of NEK6 could be used as a treatment of DPR toxicity as well, the recently described NEK6 inhibitor ZINC05007751 was tested. iCas9-hiPSC derived cortical neurons (cultured for 70-80 days) were treated with 1.75 μM to 14 μM of the inhibitor at dayl and at day 3. The cells were subjected to a PR20 treatment (1.5 μM) at day 3 together with the compound. Axonal transport measurements were performed at day 4.
The same experiments are performed with the NEK6 inhibitors ZINC05007751 and with the NEK6 inhibitors described in WO2019126696A1.
DIV79-DIV84 iPSC-derived cortical neurons were loaded with MitoTracker-Red (50 nM, Invitrogen), washed and left to equilibrate (20 min) in NMM, before transferring them to a HEPES buffered salt solution (pH 7.4, 150 mM NaCl, 5 mM KCl, 1 mM MgCl2, 2 mM CaCl2, 10 mM glucose, 10 mM HEPES). Measurements were performed on an inverted Zeiss Axiovert 200M microscope (Carl Zeiss) with a 40× water immersion lens. Neurons were selected under differential interference optics (DIC) based on typical morphology consisting of a soma and long-extended neurites. MitoTracker-RED was excited at 580 nm, using a TILL Poly V light source (TILL Photonics) and image sequences were recorded (200 images at 1 Hz) onto a cooled CCD camera (PCO Sensicam-QE) using TillVisION (TILL Photonics) software. A heated gravityfed perfusion system was used to keep cells at 36±0.5° C. during the recordings. All image analysis was performed in Igor Pro (Wavemetrics) using custom written routines based on a previously described analysis algorithm (Vanden Berghe 2004 Am. J. Physiol. Gastrointest. Liver Physiol. 286, G671-G682). In brief, kymographs or spatio-temporal maps were constructed for each of the neuronal processes. In these maps, stationary mitochondria appear as vertical lines and moving mitochondria generate tilted lines. Proportions of moving and stationary mitochondria were extracted from the maps by marking and analyzing the properties of each of the mitochondrial trajectories.

[2] = tested on: iCas9-iPSC DIV80 neuronal progeny; format: cell-based; conditions: human
Protocol: Next, the iCas9-iPSC derived DIV79 neurons were treated with PR20 peptides to mimic DPR toxicity (Cheng et al 2019 Neuron 72:1-14; Kramer et al 2018 Nat Genet 50:603-612).
To validate results from the screen, iCas9-NPCs were individually transduced with sgRNAs directed against the top 3 candidate genes, CRKL, SNRK and NEK6, that enhanced survival in the interference screen. A 50-60% reduction in protein levels of CRKL, SNRK and NEK6 was observed after doxycycline treatment (FIG. 5). […] A more pronounced effect could be observed using sgRNAs against NEK6 and SNRK.
Resazurin (R7017, Sigma) was added to the cells in neuron maintenance medium (NMM) at a concentration of 1 μg/ml. Cells were incubated for 1 h in 37° C. with 5% CO2. […] was evaluated using 540 nm excitation and 590 nm emission settings.

[3] = co-injection of poly(PR) mRNA with 0.5 mM morpholino, 30 hpf

5′-ATGTTAGAAAGTGTACCTCGATGCA-3′ (all phosphorodiamidate morpholino (PMO)) [Nek6 morpholino]
poly(PR)-induced axonal phenotype (poly(PR) zebrafish model; co-injection of poly(PR) mRNA with 0.5 mM morpholino in oocytes): significantly prevented
aberrant axonal branching (poly(PR) zebrafish model; [3]): less aberrantly branched axons
axonal length (poly(PR) zebrafish model; [3]): partial normalization

CC1=C(C#N)C(O)=NC(=O)/C1=C\c1ccc(-c2ccccc2)o1 [ZINC05007751]
axonal transport defects induced by PR20 ([1]; 1.75 μM to 14 μM inhibitor at day 1 and day 3, PR20 1.5 μM at day 3, measured at day 4): overruled the axonal transport defects

PRPRPRPRPRPRPRPRPRPRPRPRPRPRPRPRPRPRPRPR [PR20]
axonal transport ([1]; 1.5 μM PR20, normal donor iPSC-DIV79 cortical neurons): significantly decreased
neuronal progeny died (dose-response, cell viability) [2]: 70-80%

CCOc1cc(N2CCC(O)CC2)ccc1Nc1ncc2c(n1)n1c(cc3ccccc31)c(=O)n2C [Compound I-18]
axonal transport defects observed upon PR-treatment [1]: statistically significantly rescues
number of moving mitochondria [1]: statistically significantly improved
ratio of moving mitochondria to total amount of mitochondria [1]: statistically significantly improved
number of total mitochondria ([1]; 300 nm I-18, vs PR-treatment alone): statistically significantly increased

COc1cc(N2CCN(C)CC2)ccc1Nc1ncc2c(n1)n1c(cc3ccccc31)c(=O)n2C [Compound I-3]
axonal transport defects observed upon PR-treatment [1]: statistically significantly rescues
number of moving mitochondria [1]: statistically significantly improved
ratio of moving mitochondria to total amount of mitochondria [1]: statistically significantly improved
